This note sets out measurements from US20080075796A1, “Compositions and Methods for Controlling Insects” (TyraTech, Inc., priority 2003, published 2008).

Several values for one entry are separate records, joined by “and”; a condition that tells them apart may be missing. Equal entries are not always repeated.

The subject of assay [1] is Drosophila melanogaster tyramine receptor (TyrR), SEQ ID NO: 2. As to the kind of experiment: Inhibition of 3H-tyramine binding to membranes of Schneider cells expressing TyrR. The settings on record: compared with tyramine, FIG. 4. As to the method:
Phage DNA is purified from this library using a liquid culture lysate.
In order to determine the pharmacological profile of tyramine receptor (TyrR), the ability of a number of putative Drosophila neurotransmitters to displace ^3H-tyramine (^3H-TA) binding from membranes expressing tyramine receptor is tested.

Assay [2] relates to Or83b and Or43a receptors. Description: Interaction of plant essential oils with olfactory receptor binding site (membranes, ^3H-tyramine). Further details: species or system Drosophila melanogaster. The settings on record: membranes incubated with ^3H-tyramine. As to the method:
(§1) The cells expressing one of the olfactory receptors are used to investigate the interaction of plant essential oils with these receptors and the signaling cascade downstream of each receptor.
(§2) For the binding activity, membranes are prepared from each cell model and used to investigate the interaction of plant essential oil with the receptor binding site.

In assay [3] the test system is Drosophila melanogaster Or43a olfactory receptor, SEQ ID NO: 4. As to the kind of experiment: Interaction of plant essential oils with Or43a receptor binding site (3H-tyramine). The note with it: membranes, FIGS. 16, 17, 19-21. As to the method: (§3) Total RNA is prepared from the head and antenna of wild type Drosophila melanogaster using Trizol Reagent (Invitrogen). They are homogenized in the Trizol using a motor driven teflon pestle and glass homogenizer. RNA is then prepared as per the manufacturer's instructions and includes removal of proteoglycans and polysaccharides by precipitation. The total RNA is reverse transcribed using oligo-dT as a primer and MuLV reverse transcriptase (Applied Biosystems). […] The Sense oligonucleotides contain Not I sites and the antisense oligonucleotides contain Sac II sites. Both restriction sites are indicated by underlined nucleotide. […] For PCR amplification of Or83b, Vent polymerase (New England Biolabs) is used with the following conditions: about 95° C., about 5 min for about 1 cycle; about 95° C., about 30 sec; and about 70° C., about 90 sec for about 40 cycles; and about 70° C., about 10 min for about 1 cycle. For PCR amplification of Or43a, the Failsafe PCR premix selection kit (Epicentre Technologies) is used with the following conditions: about 95° C., about 5 mill for about 1 cycle; about 95° C., about 30 sec; about 60° C., about 30 sec and about 70° C., about 90 sec for about 50 cycles; and about 70° C., about 10 min for about 1 cycle. […] The PCR products are digested with Sac II and Not I, gel purified and ligated into pAC 5.1/N5 His B (Invitrogen). Inserts are sequenced on both strands by automated fluorescent sequencing (Vanderbilt Cancer Center).
(§4) To address whether Or83b receptor and Or43a receptor contain a specific binding site for tyramine, membranes expressing Or83b receptor or Or43a receptor are prepared from cells expressing either receptor, as described above, and used for competitive binding with ^3H-tyramine. The binding assay protocol is exactly as described for cells expressing TyrR, as described above.
as §1, §2

The target of a further assay is T1, Or43a receptor (Drosophila melanogaster, UniProt P81917, L154V).
T1 construct: His (from vector pAc5.1/V5-His B) (C); expressed in transfected cells
T1 sequence (P81917 whole entry L154V): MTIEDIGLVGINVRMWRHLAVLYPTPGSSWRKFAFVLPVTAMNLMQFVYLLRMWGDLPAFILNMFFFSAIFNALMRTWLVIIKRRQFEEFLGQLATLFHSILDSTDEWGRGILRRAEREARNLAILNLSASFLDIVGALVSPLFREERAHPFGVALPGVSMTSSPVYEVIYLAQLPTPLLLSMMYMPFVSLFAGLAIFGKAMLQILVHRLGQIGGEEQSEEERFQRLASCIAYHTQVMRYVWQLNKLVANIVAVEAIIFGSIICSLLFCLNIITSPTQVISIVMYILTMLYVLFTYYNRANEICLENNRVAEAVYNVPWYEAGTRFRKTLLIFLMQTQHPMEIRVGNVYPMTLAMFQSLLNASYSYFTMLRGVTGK
Description: Intracellular Ca^2+ mobilization in Schneider cells expressing Or43a receptor. The class given is cell-based. The settings on record: before vs approximately 150 seconds after treatment. The method, then: Intracellular calcium ion concentrations ([Ca^2+]i) are measured by using the acetoxymethyl (AM) ester of the fluorescent indicator fura-2 (Enan, et al., Biochem. Pharmacol vol 51, 447-454). In this study, cells expressing tyramine receptor are grown under standard conditions. A cell suspension is prepared in assay buffer (140 mM NaCL, 10 mM HEPES, 10 mM glucose, 5 mM KCl, 1 mM CaCl2, 1 mM MgCl2) and cell number adjusted to about 2×10^6 cells per ml. Briefly, about 1.0 ml cell suspension (about 2×10^6 cells) is incubated with about 5 μM Fura 2/AM for about 30 min at about 28° C. After incubation, the cells are pelleted at about 3700 rpm for about 10 sec at room temperature and then resuspended in about 1.5 ml assay buffer. [Ca^2+]i changes are analyzed in spectrofluorometer in the presence and absence of test chemicals. Excitation wave lengths are about 340 nm (generated by Ca^2+-bound fura-2) and about 380 nm (corresponding to Ca^2+-free fura-2). The fluorescence intensity is monitored at an emission wave length of about 510 nm. No absorbance of fluorescence artifacts are observed with any of the compounds used. The ratio of about 340/380 nm is calculated and plotted as a function of time.
Intracellular Ca^2+ levels are measured using the method described above in Example 3.
Changes in intracellular Ca^2+ levels are calculated based on the difference between the 340/380 fluorescence ratios before and after approximately 150 seconds of the treatment.

Another assay relates to farm ants. As to the kind of experiment: Repellent effect on farm ants (treated filter paper). The class given is in vivo. As to the method: Adult insect are randomly selected for testing the repellent effect of compositions and are not individually marked. About 5 insects per replicate are used. About 3 replicates are used for each treatment. Untreated control tests are included with only solvent (acetone) application to an equal sized population/replications, held under identical conditions. A filter paper (about 80 cm^2) is treated with the composition (about 100 mg in […] acetone). After about 3 min of air drying, the filter paper is placed in a dish and repellency against insects is performed. Insects are released to the dish, one insect at a time at the far end of the dish. Using one or more stopwatches, the time spent on either the filter paper or the untreated surface of the dish is recorded up to about 300 seconds. Repellency ratio (RR) is calculated as follows: RR=[(time on control surface−time on treated surface)/total time of test].
The repellent effect of various plant essential oils is tested by treating a filter paper with the test oils. After about five minutes at room temperature, the paper is placed in a dish and ants are introduced one at a time. […] Oils are tested alone. Additionally, oils are mixed to form compositions, which are then tested.

Assay [4] relates to Drosophila melanogaster Or83b olfactory receptor, SEQ ID NO: 6. As to the kind of experiment: Interaction of plant essential oils with Or83b receptor binding site (3H-tyramine). The note with it: membranes, FIGS. 16, 18-21. As to the method:
as §3, §4, §1, §2

The target of the next assay is T2, tyramine receptor (TyrR) (Drosophila melanogaster, UniProt P22270).
T2 sequence (P22270 27-601): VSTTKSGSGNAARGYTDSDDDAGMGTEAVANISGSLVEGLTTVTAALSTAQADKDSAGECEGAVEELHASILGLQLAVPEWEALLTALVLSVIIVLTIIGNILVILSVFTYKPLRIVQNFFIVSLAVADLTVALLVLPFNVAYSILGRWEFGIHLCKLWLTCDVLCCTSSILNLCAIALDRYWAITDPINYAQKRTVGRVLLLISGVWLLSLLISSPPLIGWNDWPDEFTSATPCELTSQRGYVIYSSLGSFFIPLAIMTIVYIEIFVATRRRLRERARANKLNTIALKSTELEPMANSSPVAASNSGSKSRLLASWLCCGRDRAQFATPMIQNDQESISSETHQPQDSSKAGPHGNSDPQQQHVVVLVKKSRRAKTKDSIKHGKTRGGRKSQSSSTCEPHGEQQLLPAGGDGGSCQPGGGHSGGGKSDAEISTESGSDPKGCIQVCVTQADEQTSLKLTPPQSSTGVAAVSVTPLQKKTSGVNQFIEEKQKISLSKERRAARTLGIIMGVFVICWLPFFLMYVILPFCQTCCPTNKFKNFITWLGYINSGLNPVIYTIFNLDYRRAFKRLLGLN
As to the kind of experiment: Saturation binding of ^3H-tyramine to membranes from Schneider cells expressing tyramine receptor. The settings on record: saturation binding, membranes expressing TyrR.

Where [5] appears, read: Day 0, time on treated surface of up to about 300 seconds.

As to `NCCc1ccc(O)c(O)c1` [Dopamine], in assay [1], the “displacing 3H-tyramine binding” value is on record as “less efficient than tyramine”.

As to `NCC(O)c1ccc(O)cc1` (stereo not drawn) [Octopamine], the “displacing 3H-tyramine binding” value in assay [1] was “less efficient than tyramine”.

Take `NCCc1c[nH]c2ccc(O)cc12` [Serotonin]: the “displacing 3H-tyramine binding” value in assay [1] is “less efficient than tyramine”.

On to `C=C(C)[C@H]1CC=C(C)CC1` [d-limonene], for which the “interaction with the olfactory receptors” value in assay [2] is listed as “interact with the olfactory receptors”. Also, the “interaction with the olfactory receptor” value in assay [3] and in assay [4] was “interact” throughout. Besides, the “change in intracellular Ca^2+ levels (340/380 fluorescence ratio)” value (from here on “change … (340/380 fluorescence ratio)”) at Or43a receptor was “calcium mobilization”. For the same compound, the “Repellency %, R %” value in the assay on farm ants (Day 0) stood at 62.9%. The “sec. on T surface” value is 55.7 s in the assay with farm ants (Day 0, test up to about 300 seconds); 55.7 s in the assay on farm ants (setting [5]); 136.2 s and 136.4 s and 133.6 s with farm ants (Day 1); 136.2 s and 136.4 s and 133.6 s in the assay on farm ants (Day 1, test up to about 300 seconds).

As to `CC1=CCC2CC1C2(C)C` (stereo not drawn) [α-pinene], the “interaction with the olfactory receptors” value in assay [2] is on record as “interact with the olfactory receptors”. Further, the “interaction with the olfactory receptor” value in assay [3] and in assay [4] was “interact” each time. For the same compound, the “change … (340/380 fluorescence ratio)” value at Or43a receptor is recorded as “calcium mobilization”. Besides, the “Repellency %, R %” value with farm ants (Day 0) came to 48.4%; with farm ants (Day 1), 07.2%. Also, the results for the “sec. on T surface” value in the assay on farm ants (setting [5]) and in the assay on farm ants (Day 1) were 77.4 s and 139.2 s, respectively.

For `Cc1ccc(C(C)C)cc1O` [carvacrol], the “interaction with the olfactory receptors” value in assay [2] is “interact with the olfactory receptors”. The “interaction with the olfactory receptor” value in assay [3] and in assay [4] was “interact” in each case. Besides, the “change … (340/380 fluorescence ratio)” value at Or43a receptor is “calcium mobilization”. In addition, the repellency entry with farm ants (in words) is “display repellency”.

Usually Kd stands for the free concentration of one partner at which half of the binding sites on the other are occupied at equilibrium, for simple one-to-one binding. Read a high Kd as a looser complex. As for `NCCc1ccc(O)cc1` [^3H-tyramine], on tyramine receptor (TyrR), the Bmax result is listed as “about 0.679 pmol/mg protein” and the Kd is around 1.26 nM.
